Reference: US5684034A, “1H-indole-3-acetamide sPLA2 inhibitors” (Eli Lilly and Company, priority 1995, dated 1997)
Where “and” joins values, the source holds several entries; their conditions need not be identical. Equal entries are not always repeated. Structures can show the parent of a compound that is named as a salt. Where two headings read alike, the source gives them in different places.

Target: T1, recombinant human secreted phospholipase A2 (Homo sapiens, UniProt P14555)
T1 sequence (P14555 21-144): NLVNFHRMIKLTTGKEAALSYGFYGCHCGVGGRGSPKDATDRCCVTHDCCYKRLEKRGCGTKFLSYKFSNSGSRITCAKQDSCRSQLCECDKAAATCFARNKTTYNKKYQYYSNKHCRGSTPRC
Experiment: Human secreted phospholipase A2 inhibition test (chromogenic assay, diheptanoyl thio-PC substrate)
Assay type: biochemical
Settings: pH 7.5, 40° C., 30 minutes, 405 nm
Description: The following chromogenic assay procedure was used to identify and evaluate inhibitors of recombinant human secreted phospholipase A2. The assay described herein has been adapted for high volume screening using 96 well microtiter plates.
A measured volume of racetic dipheptanoyl thio PC supplied in chloroform at a concentration of 100 mg/ml is taken to dryness and redissolved in 10 millimolar TRITON X-100™ nonionic detergent aqueous solution. Reaction Buffer is added to the solution, then DTNB to give the Reaction Mixture.
The reaction mixture thus obtained contains 1 mM diheptanoly thio-PC substrate, 0.29 mm Triton X-100™ detergent, and 0.12 mm DTMB in a buffered aqueous solution at pH 7.5.
1. Add 0.2 ml reaction mixture to all wells;
2. Add 10 ul test compound (or solvent blank) to appropriate wells, mix 20 seconds:
3. Add 50 nanograms of sPLA2 (10 microliters) to appropriate wells;
4. incubate plate at 40° C. for 30 minutes;
All compounds were tested in triplicate. […] Each sample was titrated in triplicate and result values were averaged for plotting and calculation of IC50 values. […] Each IC50 value was determined three times.

[1] = read-out: Inhibition of human secreted PLA2 IC50 ± mean deviation (3-5 tests)
[2] = Inhibition of human secreted PLA2 IC50 ± mean deviation (3-5 tests)

## CCOC(=O)CCCOc1ccc2c(c1)c(CC(N)=O)c(CC)n2Cc1ccccc1 [Example 57]
[1]
  IC50: 1270 nM

## CCc1c(CC(N)=O)c2cc(OCCCC(=O)NN)ccc2n1Cc1ccccc1 [Example 59]
[1]
  IC50: 74 nM

## CCc1c(CC(N)=O)c2cc(OCCCC(N)=O)ccc2n1Cc1ccccc1 [Example 60, 5-(4-Amino-4-oxobutoxy)-2-ethyl-1-(phenylmethyl)-1H-indole-3-acetamide]
[1]
  IC50: 104 ± 17 nM

## CCc1c(CC(N)=O)c2cc(OCCCP(=O)(OC)OC)ccc2n1Cc1ccccc1 [Example 61, [3-[[3-(2-Amino-2-oxoethyl)-2-ethyl-1-(phenylmethyl)-1H-indol-5-yl]oxy]propyl]phosphonic acid dimethyl ester]
[2]
  IC50: 270 nM

## CCc1c(CC(N)=O)c2cc(OCCCP(=O)(O)OC)ccc2n1Cc1ccccc1 [Example 63, [3-[[3-(2-Amino-2-oxoethyl)-2-ethyl-1-(phenylmethyl)-1H-indol-5-yl]oxy]propyl]phosphonic acid monomethyl ester]
[2]
  IC50: 39 ± 5 nM

## CCc1c(CC(N)=O)c2cc(OCCCP(=O)(O)O)ccc2n1Cc1cccc(Cl)c1 [Example 64, [3-[[3-(2-Amino-2-oxoethyl)-1-[(3-chlorophenyl)methyl]-2-ethyl-1H-indol-5-yl]oxy]propyl]phosphonic acid]
[1]
  IC50: 16 ± 1 nM

## Cc1c(CC(N)=O)c2c(OCC(=O)NN)cccc2n1Cc1ccccc1 [Example 65, 4-(2-Hydrazino-2-oxoethoxy)-2-methyl-1-(phenylmethyl)-1H-indole-3-acetamide]
[1]
  IC50: 360 ± 130 nM

## Cc1c(CC(N)=O)c2c(OCC(N)=O)cccc2n1Cc1ccccc1 [Example 66, 4-(2-Amino-2-oxoethoxy)-2-methyl-1-(phenylmethyl)-1H-indole-3-acetamide]
[1]
  IC50: 360 ± 70 nM

## CCOP(=O)(COc1cccc2c1c(CC(N)=O)c(C)n2Cc1ccccc1)OCC [Example 67]
[2]
  IC50: 1680 nM

## COc1ccc2c(c1)c(CC(N)=O)c(C)n2Cc1cccc(Cl)c1 [Example 69, 1-[(3-Chlorophenyl)methyl]-5-methoxy-2-methyl-1H-indole-3-acetamide]
[1]
  IC50: 1380 ± 520 nM

## Cc1c(CC(N)=O)c2cc(O)ccc2n1Cc1cccc(Cl)c1 [Example 70, 1-[(3-Chlorophenyl)methyl]-5-hydroxy-2-methyl-1H-indole-3-acetamide]
[1]
  IC50: 5880 ± 1170 nM

## COC(=O)COc1cccc2c1c(CC(N)=O)c(C)n2Cc1cccc(Cl)c1 [Example 71]
[1]
  IC50: 2370 ± 790 nM

## Cc1c(CC(N)=O)c2c(OCC(=O)O)cccc2n1Cc1cccc(Cl)c1 [Example 72, [[3-(2-Amino-2-oxoethyl)-1-[(3-chlorophenyl)methyl]-2-methyl-1H-indol-4-yl]oxy]methyl]acetic acid sodium salt]
[2]
  IC50: 50 ± 150 nM

## Cc1c(CC(N)=O)c2c(OCC(=O)O)cccc2n1Cc1ccccc1-c1ccccc1 [Example 73, [[3-(2-Amino-2-oxoethyl)-1-([1,1'-biphenyl]-2-ylmethyl)-2-methyl-1H-indol-4-yl]oxy]acetic acid sodium salt]
[1]
  IC50: 10 ± 1 nM

## CCc1c(CC(N)=O)c2c(OCC(=O)O)cccc2n1Cc1cccc(Cl)c1 [Example 75, 2-[[3-(2-Amino-2-oxoethyl)-1-[(3-chlorophenyl)methyl]-2-ethyl-1H-indol-4-yl]oxy]acetic acid]
[1]
  IC50: 39 ± 4 nM

## NC(=O)Cc1cn(Cc2ccccc2)c2cccc(OCC(=O)O)c12 [Example 76, 2-[[3-(2-Amino-2-oxoethyl)-1-(phenylmethyl)-1H-indol-4-yl]oxy]acetic acid]
[1]
  IC50: 337 nM and 305 nM

## COc1ccc2c(c1)c(CC(N)=O)c(C1CC1)n2Cc1ccccc1 [Example 77, 2-Cyclopropyl-5-methoxy-1-(phenylmethyl)-1H-indole-3-acetamide]
[1]
  IC50: 336 ± 23 nM

## NC(=O)Cc1c(C2CC2)n(Cc2ccccc2)c2ccc(O)cc12 [Example 78, 2-Cyclopropyl-5-hydroxy-1-(phenylmethyl)-1H-indole-3-acetamide]
[1]
  IC50: 118 ± 11 nM

## NC(=O)Cc1c(C2CC2)n(Cc2ccccc2)c2ccc(OCCCP(=O)(O)O)cc12 [Example 79, [3-[[3-(2-Amino-2-oxoethyl)-2-cyclopropyl-1-(phenylmethyl)-1H-indol-5-yl]oxy]propyl]phosphonic acid]
[2]
  IC50: 46 ± 6 nM

## NC(=O)Cc1cn(Cc2ccccc2)c2ccc(OCCCP(=O)(O)O)cc12 [Example 80, [3-[[3-(2-Amino-2-oxoethyl)-1-(phenylmethyl)-1H-indol-5-yl]oxy]propyl]phosphonic acid]
[2]
  IC50: 200 ± 90 nM

## NC(=O)Cc1cn(Cc2ccccc2)c2ccc(OCP(=O)(O)O)cc12 [Example 81, [[3-(2-Amino-2-oxoethyl)-1-(phenylmethyl)-1H-indol-5-yl]oxy]methyl]phosphonic acid disodium salt]
[2]
  IC50: 3800 nM and 3600 nM

## NC(=O)Cc1cn(Cc2ccccc2)c2ccc(O)cc12 [Example 82, 5-Hydroxy-1-(phenylmethyl)-1H-indole-3-acetamide]
[1]
  IC50: 3680 ± 190 nM

## NC(=O)Cc1cn(Cc2ccccc2)c2ccc(OCCCC(=O)O)cc12 [Example 83, 4-[[3-(2-Amino-2-oxoethyl)-1-(phenylmethyl)-1H-indol-5-yl]oxy]butanoic acid]
[1]
  IC50: 150 ± 40 nM

## Cc1c(CC(N)=O)c2cc(OCCCS(=O)(=O)O)ccc2n1Cc1ccccc1 [Example 84, 3-[4-[[3-(2-Amino-2-oxoethyl)-2-methyl-1-(phenylmethyl)-1H-indol-5-yl]oxy]propane]sulfonic acid]
[1]
  IC50: 195 ± 65 nM

## COP(=O)(CCCOc1ccc2c(c1)c(CC(N)=O)c(Br)n2Cc1ccccc1)OC [Example 86, [3-[[3-(2-Amino-2-oxoethyl)-2-bromo-1-(phenylmethyl)-1H-indol-5-yl]oxy]propane]phosphonic acid dimethyl ester]
[2]
  IC50: 420 ± 210 nM

## COP(=O)(O)CCCOc1ccc2c(c1)c(CC(N)=O)c(Br)n2Cc1ccccc1 [Example 87]
[2]
  IC50: 72 ± 17 nM

## NC(=O)Cc1c(Br)n(Cc2ccccc2)c2ccc(OCCCP(=O)(O)O)cc12 [Example 88]
[2]
  IC50: 30 ± 6 nM

## COc1cc2c(CC(N)=O)c(Br)n(Cc3ccccc3)c2cc1Cl [Example 89, 2-Bromo-6-chloro-5-methoxy-1-(phenylmethyl)-H-indole-3-acetamide]
[1]
  IC50: 120 ± 20 nM

## NC(=O)Cc1c(Br)n(Cc2ccccc2)c2cc(Cl)c(O)cc12 [Example 90, 2-Bromo-6-chloro-5-hydroxy-1-(phenylmethyl)-H-indole-3-acetamide]
[1]
  IC50: 90 ± 10 nM

## NC(=O)Cc1cn(Cc2ccccc2)c2cc(Cl)c(OCCCP(=O)(O)O)cc12 [Example 92, 3-[4-[[3-(2-Amino-2-oxoethyl)-6-chloro-1-(phenylmethyl)-1H-indol-5-yl]oxy]propyl]phosphonic acid]
[1]
  IC50: 14 ± 4 nM

## C=CCc1c(O)ccc2c1c(CC(N)=O)c(CC)n2Cc1ccccc1 [Example 93, 4-Allyl-2-ethyl-5-hydroxy-1-(phenylmethyl)-1H-indole-acetamide]
[2]
  IC50: 140 ± 40 nM

## C=CCc1c(OCCCP(=O)(O)O)ccc2c1c(CC(N)=O)c(CC)n2Cc1ccccc1 [Example 94, [3-[[4-Allyl-3-(2-amino-2-oxoethyl)-2-ethyl-1-(phenylmethyl)-1H-indol-5-yl]oxy]propyl]phosphonic acid disodium salt]
[1]
  IC50: 612 ± 65 nM

## Cc1c(CC(N)=O)c2cc(Oc3ccccc3)ccc2n1Cc1ccccc1 [Example 95, 2-Methyl-5-phenoxy-1-(phenylmethyl)-1H-indole-3-acetamide]
[1]
  IC50: 1010 ± 320 nM

## COC(=O)c1ccccc1COc1ccc2c(c1)c(CC(N)=O)c(C)n2Cc1ccccc1 [Example 96, 2-[[[3-(2-Amino-2-oxoethyl)-2-methyl-1-(phenylmethyl)-1H-indol-5-yl]oxy]methyl]benzoic acid methyl ester]
[1]
  IC50: 620 ± 180 nM

## Cc1c(CC(N)=O)c2cc(OCc3ccccc3C(=O)O)ccc2n1Cc1ccccc1 [Example 97, 2-[[[3-(2-Amino-2-oxoethyl)-2-methyl-1-(phenylmethyl)-1H-indol-5-yl]oxy]methyl]benzoic acid]
[2]
  IC50: 150 ± 10 nM

## CCc1c(CC(N)=O)c2cc(OCc3ccccc3C(=O)OC)ccc2n1Cc1ccccc1 [Example 98, 2-[[[3-(2-Amino-2-oxoethyl)-2-ethyl-1-(phenylmethyl)-1H-indol-5-yl]oxy]methyl]benzoic acid methyl ester]
[1]
  IC50: 1150 ± 320 nM

## CCc1c(CC(N)=O)c2cc(OCc3ccccc3C(=O)O)ccc2n1Cc1ccccc1 [Example 99, 2-[[[3-(2-Amino-2-oxoethyl)-2-ethyl-1-(phenylmethyl)-1H-indol-5-yl]oxy]methyl]benzoic acid]
[1]
  IC50: 540 ± 180 nM

## COC(=O)c1cccc(COc2ccc3c(c2)c(CC(N)=O)c(C)n3Cc2ccccc2)c1 [Example 100, 3-[[[3-(2-Amino-2-oxoethyl)-2-methyl-1-(phenylmethyl)-1H-indol-5-yl]oxy]methyl]benzoic acid methyl ester]
[1]
  IC50: 3840 ± 1320 nM

## Cc1c(CC(N)=O)c2cc(OCc3cccc(C(=O)O)c3)ccc2n1Cc1ccccc1 [Example 101, 3-[[[3-(2-Amino-2-oxoethyl)-2-methyl-1-(phenylmethyl)-1H-indol-5-yl]oxy]methyl]benzoic acid]
[1]
  IC50: 1890 ± 500 nM
